Activity calls are given as the source filed them. The rule behind the calls is not given here.
What was measured:
[1] = target: T1, DNA (cytosine-5)-methyltransferase 3B (Homo sapiens, UniProt Q9UBC3); assay: biochemical
[2] = target: DNA (cytosine-5)-methyltransferase 1 (Homo sapiens, UniProt P26358); assay: Inhibition of human recombinant DNMT1 expressed in baculovirus infected high five insect cells
[3] = target: T1, DNA (cytosine-5)-methyltransferase 3B; assay: Inhibition of human recombinant DNMT3b2 expressed in baculovirus infected high five insect cells at 45 uM

Sequence of DNA (cytosine-5)-methyltransferase 1 (P26358 whole entry): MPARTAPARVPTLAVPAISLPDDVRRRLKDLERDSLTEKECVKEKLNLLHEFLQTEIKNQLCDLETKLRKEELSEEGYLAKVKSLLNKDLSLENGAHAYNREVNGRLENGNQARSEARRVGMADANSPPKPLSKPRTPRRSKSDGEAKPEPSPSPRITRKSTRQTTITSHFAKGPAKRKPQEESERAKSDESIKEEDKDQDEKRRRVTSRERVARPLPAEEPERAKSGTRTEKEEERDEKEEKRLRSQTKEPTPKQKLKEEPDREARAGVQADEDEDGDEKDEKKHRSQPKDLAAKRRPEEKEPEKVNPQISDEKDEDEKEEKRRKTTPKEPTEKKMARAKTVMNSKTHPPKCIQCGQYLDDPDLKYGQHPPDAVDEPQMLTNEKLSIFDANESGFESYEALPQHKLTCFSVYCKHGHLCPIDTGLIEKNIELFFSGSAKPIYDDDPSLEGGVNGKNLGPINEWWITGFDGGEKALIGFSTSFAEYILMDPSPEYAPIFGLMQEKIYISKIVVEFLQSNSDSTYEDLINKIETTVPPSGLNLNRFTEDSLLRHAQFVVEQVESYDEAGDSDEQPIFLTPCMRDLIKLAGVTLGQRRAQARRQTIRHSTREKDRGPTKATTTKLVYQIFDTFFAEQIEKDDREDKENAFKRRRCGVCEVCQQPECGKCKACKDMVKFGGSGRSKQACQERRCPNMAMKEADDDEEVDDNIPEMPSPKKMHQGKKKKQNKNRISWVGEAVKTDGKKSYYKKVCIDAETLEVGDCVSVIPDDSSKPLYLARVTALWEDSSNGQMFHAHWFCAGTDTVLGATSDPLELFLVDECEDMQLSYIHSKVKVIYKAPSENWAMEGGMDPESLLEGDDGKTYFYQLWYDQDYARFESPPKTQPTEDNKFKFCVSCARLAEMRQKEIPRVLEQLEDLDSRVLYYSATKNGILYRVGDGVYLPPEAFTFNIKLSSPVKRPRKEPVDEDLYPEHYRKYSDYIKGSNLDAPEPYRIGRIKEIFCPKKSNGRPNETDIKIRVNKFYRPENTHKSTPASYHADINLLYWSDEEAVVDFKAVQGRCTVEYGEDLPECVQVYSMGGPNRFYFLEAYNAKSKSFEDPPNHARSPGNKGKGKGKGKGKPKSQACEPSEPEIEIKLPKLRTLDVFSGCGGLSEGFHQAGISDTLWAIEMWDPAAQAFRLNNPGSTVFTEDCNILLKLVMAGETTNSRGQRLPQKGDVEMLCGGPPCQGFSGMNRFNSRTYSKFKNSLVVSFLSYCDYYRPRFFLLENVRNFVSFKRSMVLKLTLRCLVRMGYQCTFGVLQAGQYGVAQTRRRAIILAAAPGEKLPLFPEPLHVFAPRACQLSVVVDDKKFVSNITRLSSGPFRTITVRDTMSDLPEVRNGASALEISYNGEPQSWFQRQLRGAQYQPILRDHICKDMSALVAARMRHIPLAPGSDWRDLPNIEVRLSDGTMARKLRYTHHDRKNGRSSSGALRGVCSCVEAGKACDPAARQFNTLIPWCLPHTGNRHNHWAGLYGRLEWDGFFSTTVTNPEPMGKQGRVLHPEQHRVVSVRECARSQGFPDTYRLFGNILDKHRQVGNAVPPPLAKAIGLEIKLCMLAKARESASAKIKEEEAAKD

Compound | IC50 [1] [µM] | IC50 [2] [µM] | inhibition [3]
COc1nc(N)c2ncn([C@@H]3O[C@H](CSCCC(N)C(=O)O)[C@@H](O)[C@H]3O)c2n1 (some centres undefined) |  | 75 | inactive
N[C@@H](CCSC[C@H]1O[C@@H](n2cnc3c(=O)[nH]cnc32)[C@H](O)[C@@H]1O)C(=O)O | > 1000 |  | 
Nc1ncnc2c1ncn2[C@@H]1O[C@H](CSCC[C@H](N)C(=O)O)[C@@H](O)[C@H]1O (racemic) [S-ADENOSYLHOMOCYSTEINE] | 0.3 |  | 
Nc1ncnc2c1nnn2[C@@H]1O[C@H](CSCCC(N)C(=O)O)[C@@H](O)[C@H]1O (some centres undefined) |  | 8 | 

Further lines, results first:

IC50 [1] [µM] | IC50 [2] [µM] | inhibition [3] | Compound
1 | 61 |  | NC(CCSC[C@H]1O[C@@H](n2cnc3c(NCc4ccccc4)ncnc32)[C@H](O)[C@@H]1O)C(=O)O (some centres undefined)
500 | 216 |  | CSc1nc(N)c2ncn([C@@H]3O[C@H](CSCCC(N)C(=O)O)[C@@H](O)[C@H]3O)c2n1 (some centres undefined)
